Series [1] concerns erythrocytes in blood anticoagulated with sodium citrate. The experiment in a line: Blood sedimentation of citrated blood left to stand in a glass tube or blood container. The series is classed as cell-based. Particulars: 30 minutes. The method, then: A solution of DIDS (Tokyo Chemical Industry Co., Ltd.) in physiological saline was added to blood anticoagulated with sodium citrate to a final concentration of 0.15 mg/ml or 1.5 mg/ml, respectively. The resulting mixture was mixed, and placed in a glass tube having a diameter of 6 mm (FIG. 1) or a blood container for measurement of thrombus formation (FIG. 2), followed by being left to stand.
A solution of DNDS (Tokyo Chemical Industry Co., Ltd.) in physiological saline was added to blood anticoagulated with sodium citrate to a final concentration of 0.02 mg/ml, 0.1 mg/ml, or 0.2 mg/ml, respectively. The resulting mixture was mixed, and placed in a glass tube having a diameter of 6 mm (FIG. 3), followed by being left to stand.
A solution of DNDS (Tokyo Chemical Industry Co., Ltd.) in physiological saline was added to blood anticoagulated with sodium citrate to a final concentration of 0.5 mg/ml or 1.0 mg/ml, respectively. The resulting mixture was mixed, and placed in a glass tube having a diameter of 6 mm. The glass tube was then inclined at an angle of 30°, and left to stand (FIG. 4).

In series [2] the test system is citrate blood (thrombus formation; blood coagulation capacity and platelet function). Kind of series: Microchip capillary perfusion: pressure changes caused by formation of thrombi composed of fibrin and platelets. Type of series: cell-based. The conditions noted are these: for blood sedimentation: blood sample of the perfusion test; for thrombus formation (pressure pattern during perfusion): perfusion 10 μl/min for 30 minutes, collagen and tissue thromboplastin coated capillary. The method, then:
The apparatus described in FIG. 12 of Patent Document 1 was used.
A capillary having a width of 300 μm, depth of 80 μm, and length of 1.5 cm formed on a microchip was coated with type I collagen (manufactured by Nitta Gelatin Inc.) and tissue thromboplastin (manufactured by Sysmex Corporation). The capillary was perfused with citrate blood supplemented with CTI (corn trypsin inhibitor) (final concentration, 50 μg/ml), calcium chloride (final concentration, 12 mM), and DIDS (final concentration, 0 or 1.5 mg/ml) or DNDS (final concentration, 0.3 mg/ml) fed from a blood container at a flow rate of 10 μl/min for 30 minutes, while changes in the pressure caused by formation of thrombi composed of fibrin and platelets were continuously measured.
FIG. 5 is a graph showing the pressure patterns during the perfusion with blood samples. The pressure reflects formation of thrombi composed of fibrin and activated platelets, and comprehensively reflects the blood coagulation capacity and the platelet function. […] B represents the pressure changes in the case of the blood sample supplemented with DIDS (1.5 mg/ml), and C represents the pressure changes in the case of the perfusion with the blood supplemented with DNDS (0.3 mg/ml).

The next series is described as follows: Solubility in water. The series is classed as physicochemical.

The values that follow come from patent US10788502B2, “Erythrocyte sedimentation inhibitor” (FUJIMORI KOGYO CO., LTD., priority 2014, dated 2020).

On to `O=S(=O)(O)c1cc(N=C=S)ccc1C=Cc1ccc(N=C=S)cc1S(=O)(=O)O` [DIDS, 4,4′-Diisothiocyanatostilbene-2,2′-disulfonic acid], for which the blood sedimentation result was “rather suppressed” in series [1] (0.15 mg/ml final concentration, 6 mm glass tube or blood container for measurement of thrombus formation); “completely suppressed” in series [1] (1.5 mg/ml final concentration, glass tube and container having an inclined bottom); “strongly suppresses blood sedimentation” in series [2] (1.5 mg/ml). Moreover, the “thrombus formation (pressure pattern during perfusion)” value in series [2] (1.5 mg/ml) is “does not affect thrombus formation”.
With `O=[N+]([O-])c1ccc(C=Cc2ccc([N+](=O)[O-])cc2S(=O)(=O)[O-])c(S(=O)(=O)[O-])c1.[Na+].[Na+]` [DNDS, disodium 4,4′-dinitrostilbene-2,2′-disulfonate], the “blood sedimentation relative to the control” value in series [1] (0.02 mg/ml final concentration, 6 mm glass tube) is given as “suppressed”; in series [1] (0.1 mg/ml final concentration, 6 mm glass tube), “suppressed”; in series [1] (0.5 mg/ml final concentration, 6 mm glass tube inclined at an angle of 30°), “suppressed”; in series [1] (1.0 mg/ml final concentration, 6 mm glass tube inclined at an angle of 30°), “suppressed”. Besides, the blood sedimentation result in series [1] (0.2 mg/ml final concentration, 6 mm glass tube) is reported as “almost completely suppressed”; in series [2] (0.3 mg/ml), “strongly suppresses blood sedimentation”. In addition, the solubility in water result in “Solubility in water” is “soluble in water”. In addition, the “thrombus formation (pressure pattern during perfusion)” value in series [2] (0.3 mg/ml) is “does not affect thrombus formation”.
